Measurements as given in US6211250A, “Percutaneous delivery system” (Soltec Research Pty Ltd., priority 1996, dated 2001).
Entries after “also recorded” stand apart in the source; their conditions may differ.

Assays:
[1] = In vitro skin diffusion through shed snake skin in horizontal flow-through diffusion cells; type: in vitro ADME, Children's Python; conditions: result in words
Text: The Children's Python shed snake skin was obtained during natural shedding and the dorsal skin was used. Shed snake skin has shown to be a suitable model membrane for human skin by Itoh, et al., Use of Shed Snake Skin as a Model Membrane for In Vitro Percutaneous Penetration Studies: Comparison with Human Skin Pharm.
Method of Conducting In-Vitro Skin Diffusion Experiments in Horizontal Diffusion Cells
A modified stainless steel flow-through diffusion cell assembly based on that first shown by Cooper in J. Pharm. Sci. 73, 1984, was used to perform the experiments on diffusion of the drugs from various donor compositions through snake skin.
Topical formulations are weighed out onto the skin substrate which has an area of 0.79 cm^2. Active substance penetrates through the skin and into the receptor solution in the bottom section of the cell. Inlet and outlet tubes connected to the receptor chamber maintain skin conditions.
The temperature of the skin was maintained at 32° C.
The receptor solution consisted of 50% propylene glycol in water, made isotonic with 0.9% sodium chloride and preserved with 0.1% sodium azide.
The concentration of applied drug in each diffusion cell sample was measured using high pressure liquid chromatography (HPLC) and absorbance detection. The results reported for each experiment are average values of the replicate diffusion cells. […]

Candida albicans = conditions: result in words
Experimental: The gels and cream were applied to round glass cover slips of 5 cm^2 each. The application rate for all products was 5 mg/cm^2.
After drying, the coated side of the slides were placed on MEA plates which had been previously seeded with a culture of C. albicans. The plates were incubated at 37° C. for 72 hours. The zone of inhibition was measured around the test slides at the end of the incubation period. Furthermore the slides were removed and an assessment of the growth of the test organism was made in the contact zone with the slide. All tests were performed in duplicate.

Which results are given for `CC(C(=O)O)c1cccc(C(=O)c2ccccc2)c1` (stereo not drawn) [Ketoprofen, ketoprofen]?
penetration / rate of release of Ketoprofen into the skin (FIG. 3) ([1]; Example 3, varying level of Dermacryl 79): the rate of the release of Ketoprofen into the skin of the subject can be varied; penetration of ketoprofen (FIG. 5) ([1]; Example 8, different hydrophobic polymers): can be controlled through the incorporation of hydrophobic polymers

With `Clc1ccccc1C(c1ccccc1)(c1ccccc1)n1ccnc1` [clotrimazole] as the compound, how does the “activity of clotrimazole in the gel film against C. albicans” value (Candida albicans) read?
Its value is “biologically active within the film according to the invention and in fact is more active than the commercial clotrimazole cream; also recorded: could be increased by addition of a plasticiser ie., propylene glycol”.
